Source: patent US10815272B2, “CD31 peptides” (INSTITUT NATIONAL DE LA SANTE ET DE LA RECHERCHE MEDICALE …, priority 2012, dated 2020)
“And” between values parts separate entries of the source, which are not always exact repeats. Identical values can stand only once. Non-standard residues stand in square brackets, D forms with d. Residues, ends and D or L forms follow the SMILES beside them. No end group written: not given here.

Legend:
[1] = solubility comparison of peptides; type: physicochemical; details: for maximum soubility: in the minimal solvent
Excerpt: (§1) The solubility, activity and stability (resistance to freezing/thawing) of the P8F and P8RI peptides were compared to previously used peptides comprising the membrane-proximal sequences of CD31.

[2] = tested on: occlusive thrombus in apoE KO mice; experiment: acute thrombosis model, ligation of the left common carotid artery in atherosclerotic apoE KO mice; type: in vivo
Protocol: Atherosclerotic mice were treated with P8F at 2.5, 5 or 10 mg/kg/day, with aspirin as a positive control and vehicle as a negative control.
The width of the columns is proportional to the number of mice included in each group (Aspirin=5, “2.5”=7, “5”=11, “10”=7, Vehicle=8). P<0.05 for all groups vs vehicle (Veh).
The P8F sequence was also used in vivo (subcutaneous administration of different doses: 2.5, 5 and 10 mg/kg/d) in atherosclerotic mice (apoE KO, 35 weeks of age, male, chow diet) subjected to the ligation of the left common carotid artery (a model of acute thrombosis). Due to advanced age, most of the mice had already developed an atherosclerotic lesion close to the site where the ligation was performed.

[3] = stability, resistance to repeated freeze-thaw cycles (loss of activity); type: physicochemical; details: number of cycles after which activity was diminished or abolished
Protocol: as §1
Stability was determined by subjecting the peptides to repeated freeze-thaw cycles and determining the number of cycles after which ED 50 was increased and/or biological activity abolished.

[4] = tested on: human platelet aggregation; experiment: platelet aggregation on collagen-coated microcapillaries under flow (whole blood perfusion); type: cell-based; details: soluble peptide, 1500 seconds^−1, first 5 minutes
Protocol: The microcapillaries of Vena8 Fluoro+™ biochip (400 μm width×100 μm depth×20 mm length, Cellix) were coated with 2.5 mg/ml insoluble horse type I collagen overnight at 4° C. and then blocked with 0.1% HSA for 1 hour at room temperature. Human peripheral whole blood, anticoagulated with P-PACK (a direct thrombin inhibitor, non-chelating agent) was labeled with 5 μM DiOC6 for 10 minutes before perfusion with the Cellix pump at 1500 seconds^−1 through the coated capillaries. The interaction of platelets with the matrix was viewed in real time under a fluorescence microscope and was saved for off-line analysis. The surface covered by aggregated platelets was analyzed frame by frame (24 frames/s) over the first 5 minutes and expressed as coverage %.

[5] = tested on: Jurkat T cells; experiment: calcium mobilization test using Jurkat T cells after TCR stimulation; type: cell-based
Protocol: Jurkat T cells were preincubated with the fluo 3-AM calcium probe and stimulated by cross-linking the TCR with anti-CD3 antibodies and secondary antibody F(ab′)2 fragments.
Jurkat T cells (10×10^6/ml) were preincubated with the fluo 3-AM calcium probe and stimulated by cross-linking the TCR with anti-CD3 antibodies and secondary antibody F(ab′)2 fragments.
Activity was determined using the calcium mobilization test using Jurkat T cells, as described above.

Molecule | minimal solvent [1] | solubility in water [1] | maximum soubility [1] [mg/mL] | also measured
CC(=O)Oc1ccccc1C(=O)O [aspirin, reference compound] | – | – | – | occlusive thrombus found ([2]; aspirin s.c. 150 mg/kg/d): No occlusive thrombus
VRVFLAPWKK [PepReg, reference compound] | 10% Acetonitrile, and 5% acetic acid | – | 8.1 | –

Second part, led by results:

minimal solvent [1] | solubility in water [1] | maximum soubility [1] [mg/mL] | Molecule | also measured
water | soluble in water | 30.5 | CC(C)C[C@@H](NC(=O)[C@@H](C)NC(=O)[C@H]1CCCN1C(=O)[C@@H](Cc1c[nH]c2ccccc12)NC(=O)[C@H](N)CCCCN)C(=O)N[C@H](Cc1ccccc1)C(=O)N[C@@H](C(=O)N[C@H](CCCNC(=N)N)C(=O)O)C(C)C [P8RI, H-kwpalfvr-OH] (H-[dK][dW][dP][dA][dL][dF][dV][dR]-OH) | –
water | soluble in water | 28.1 | H-RVFLAPWK-OH [P8F] | antithrombotic effect relative to reference drug ([2]; 5 mg/Kg/d s.c., vs aspirin 150 mg/kg/d s.c.): same extent of antithrombotic effect as the reference drug; occlusive thrombus found ([2]; 5 mg/ml group (so in the source)): No occlusive thrombus; number of sections showing an occlusive thrombus, out of 1000 sections/sample ([2]; P8F-treated mice vs vehicle): significantly lowered; appearance of an occlusive thrombus ([2]; s.c. 2.5, 5 and 10 mg/kg/d, all tested doses): effective in preventing the appearance of an occlusive thrombus; maximum freeze/thaw cycles [3]: 3 cycles; human platelet aggregation (surface coverage %) [4]: inhibit human platelet aggregation in a dose dependent manner; intracellular calcium mobilization (median fluorescence intensity of fluo-3AM probe) ([5]; 60 μg/ml peptide, Jurkat cells, TCR stimulation with anti-CD3 + F(ab')2): delayed and reduced; EC50 ([5]; Jurkat cells stimulated with antiCD3+Fab antibodies, read-out: ED 50 (minimal dose producing 50 percent of the maximum obtainable inhibition of intracellular calcium mobilization)): 25 µM
10% Acetonitrile, and 5% acetic acid | – | 15.9 | SMRTSPRSSTLAVRVFLAPWKK [P22 mouse, reference compound] | –
